Data from patent US10053422B2, “Compounds for the treatment of mTOR pathway related diseases” (Pitney Pharmaceuticals Pty Limited, priority 2012, dated 2018).
“Also recorded” adds a separate entry of the source. Where two headings read alike, the source gives them in different places.

Key:
[1] = test system: IGROV-1 cells; experiment: SRB cell proliferation assay, IGROV-1; format: cell-based; settings: Homo sapiens
Protocol: (§1) Cell proliferation was assessed using the sulforhodamine B (SRB) assay. Cells seeded in 96-well plate (2,000-3,000 cell/well) were treated with MPL (0, 1, 5, 10, 25, 50 and 100 μmol/L) for 72 h. Cells were then fixed, washed and stained with 100 μl of 0.4% (w/v) SRB dissolved in 1% acetic acid. Unbound dye was removed by five washes with 1% acetic acid before air drying. Bound SRB was solubilized with 100 μl of 10 mM Tris base (pH 10.5) and the absorbance read at 570 nm. Exactly the same procedure was used to assess MPL-SO2. Both agents were dissolved in ethanol and diluted with media to give the final concentrations required for cell culture assays.

[2] = test system: 1A9 cells; experiment: SRB cell proliferation assay, 1A9; format: cell-based; settings: Homo sapiens
Protocol: as §1

[3] = test system: MDA-MB-231 cells; experiment: SRB cell proliferation assay, MDA-MB-231; format: cell-based; settings: Homo sapiens
Protocol: as §1

[4] = test system: PET cells (mesothelioma); experiment: SRB cell proliferation assay, PET; format: cell-based; settings: for IC50: PET
Protocol: as §1

[5] = test system: PC-3 prostate cancer cells; experiment: SRB cell proliferation assay, PC-3; format: cell-based
Protocol: as §1

[6] = test system: HUVEC (human umbilical vein endothelial cells); experiment: SRB cell proliferation assay, HUVEC; format: cell-based
Protocol: as §1

[7] = test system: OVCAR-3 or A2780 cells; experiment: Cell cycle analysis by flow cytometry; format: cell-based, human
Protocol: OVCAR-3 (FIG. 3a) or A2780 (FIG. 3b) cells were treated with MPL (0, 5, 10 and 25 μmol/L) for 48 hours. Propodium iodide stained cells were analysed for DNA content using flow cytometric analysis. The results (see table) are shown as a percentage of cells in G1, S and G2/M phases. Each value represents mean±SEM of 2 independent experiments.
OVCAR-3 or A2780 cells were treated with MPL (0, 5, 10, 25 μM) for 48 h and examined by flow cytometric analysis (FACS) after staining the cells with PI. The Fig. and data present MPL-induced change in cell distribution in various phases of the cell cycle, here shown as percentage of cells in G1, S and G2/M phases. Each value represents mean±SEM of 2 independent determinations.
The effect of MPL on the cell cycle was determined using standard flow cytometry analysis protocols and procedures. Briefly, 0.7×10^6 […] cells seeded in […] flasks and allowed to adhere overnight were treated with MPL for 24 or 48 h. Cells were collected with trypsinization and pooled with the cells floating in the medium. The cell suspensions were centrifuged, washed with PBS and fixed with methanol. Cells were then washed, resuspended in propodium iodide and ribonuclease A in PBS for 30 min at room temperature and analyzed by flow cytometry (Becton Dickinson FACSort).

[8] = test system: cdk2, cdk4, cyclins A, and E; experiment: Western blot of cell cycle regulatory proteins; format: cell-based; settings: MPL 0, 5, 10, 25 μM
Protocol: (§2) Whole-protein extracts were obtained and separated by electrophoresis and immunoblots were probed with the indicated antibodies. Western blot analysis showing the levels of these proteins in each extract was analysed using the relevant antibodies. The image represents the exposed radiographic film scanned. The house-keeping gene (GAPDH) was used to confirm similar protein loading and blot transfer.
as §2, with “electrophoresis,” for “electrophoresis”
Protein expression in cells was determined using western blot analysis. After treatment with the indicated concentrations of MPL, cell lysates were prepared and probed with antibodies for cdk2, cdk4, cyclin A, cyclin E, PARP-1 (1:1000 dilutions; Cell Signalling Technology), and p53 (1:200 dilutions; Santa Cruz Biotechnology).

[9] = test system: U87 glioma cells; experiment: Autophagy (vacuoles, LC3-II), U87; format: cell-based; settings: chemo-resistant U87 glioma cells, concentration-dependent
Description: Autophagy is a characteristic of mTOR inhibition.
Concentration-dependent conversion of LC3-I to LC3-II confirms the increasing phenomenon of autophagy in these cells.

[10] = test system: OVCAR-3 tumors; experiment: s.c. OVCAR-3 xenograft growth in nude mice; format: in vivo, female nude mice
Protocol: 2.5 million log-phase growing OVCAR-3 cells were injected s.c. into the left flank of each mouse. Tumor growth was monitored by caliper measurements and tumor volumes were determined through measuring orthogonal diameters. Estimated tumor volume was calculated based on the formula ½ (Length×Width2), where width is the shorter of the two orthogonal measurements. Treatment was initiated 7 days post tumor cell injection before which, mice were randomized and assigned to treatment or the control group (6 per group). […] Control group were treated with the vehicle only.
Log-phase growing OVCAR-3 cells were injected s.c. into the left flank of each mouse. Tumor growth was monitored by caliper measurements and tumor volumes were determined through measuring orthogonal diameters. Estimated tumor volume was calculated based on the formula ½ (Length×Width2), where width is the shorter of the two orthogonal measurements. Treatment was initiated 7 days post tumor cell injection before which, mice were randomized and assigned to treatment or the control group (6 per group). […] Control group were treated with the vehicle only.
OVCAR-3 cells were injected s.c. into the left flank of each mouse. Tumor growth was monitored by caliper measurements and tumor volumes were determined of orthogonal diameters, and the estimated tumor volume was calculated based on the formula ½ (Length×Width2), where width is the shorter of the two orthogonal measurements. Treatment was initiated 7 days post tumor cell injection before which, mice were randomized and assigned to treatment or the control group (6 per group). […] Control group were treated orally with the vehicle only.
Mice were inoculated in the left flank with 2.5 million log-phase growing human OVCAR-3 cells. Tumor growth was monitored by caliper measurements and tumor volumes were determined through measuring orthogonal diameters. Estimated tumor volume was calculated based on the formula ½ (Length×Width2), where width is the shorter of the two orthogonal measurements. Treatment was initiated 7 days post tumor cell injection before which, mice were randomized and assigned to treatment or the control group (5-6 per group).
Female nude mice (6 weeks old) were purchased from Biological Resources (Faculty of Medicine, University of New South Wales). An institutional animal ethics approval covered all procedures carried out on mice. […] Animals were weighed once weekly while their tumor volumes were determined twice weekly. Tumor growth was monitored by caliper measurements of orthogonal diameters, and the estimated tumor volume was calculated based on the formula ½ (Length×Width^2), where width is the shorter of the two orthogonal measurements. Based on institutional ethics approval, mice were euthanized before the tumor volume reached 500 mm^3. Treatment was initiated on day 8 after tumor cell injection when mice were randomized and assigned to treatment or the control group (6 per group). Monepantel was suspended in sterile 0.5% (w/v) hydroperoxymethyl cellulose (HPMC). Drug was administered i.p. 3 times weekly at 25 or 50 mg/kg. Control group was treated with sterile vehicle (0.5% HPMC). Mice were treated for a period of 3 weeks. Twenty four hours post-last drug administration, mice were euthanized and their tumors excised and frozen at −80° C. until analysis.
In alternative experiments, treatment was initiated on day 8 post tumor cell inoculation when mice were randomized and assigned to one of MPL or vehicle treated groups (5-6 mice per group). MPL was suspended in hydroperoxy methylcellulose (0.5% w/v HPMC), sterilized by sonnicator and administered every other day either intraperitoneally (i.p) or orally as gavage (100 μL).

[11] = cited from earlier work

C[C@](C#N)(COc1cc(C#N)ccc1C(F)(F)F)NC(=O)c1ccc(SC(F)(F)F)cc1 [MPL, N-[(1S)-1-Cyano-2-(5-cyano-2-trifluoromethyl-phenoxy)-1-methyl-ethyl]-4-trifluoromethylsulfanyl-benzamide]
IC50 ([1]; IGROV-1, ovarian cancer (Table 2), read-out: IC50 in suppressing proliferation): 4.4 ± 0.27 µM
IC50 ([1]; IGROV-1, ovarian cancer, 72 h, SRB assay (Table 1), read-out: IC50): 6.1 µM
IC50 ([2]; 1A9, ovarian cancer (Table 2), read-out: IC50 in suppressing proliferation): 2.5 ± 0.45 µM
IC50 ([2]; 1A9, ovarian cancer, 72 h, SRB assay (Table 1), read-out: IC50): 1.8 µM
IC50 ([3]; MDA-MB-231, breast cancer (Table 2), read-out: IC50 in suppressing proliferation): 23.8 ± 0.2 µM
IC50 ([3]; MDA-MB-231, breast cancer, 72 h, SRB assay (Table 1), read-out: IC50): 24 µM
IC50 ([4]; mesothelioma (Table 2), read-out: IC50 in suppressing proliferation): 26 µM
IC50 ([4]; mesothelioma, 72 h, SRB assay (Table 1), read-out: IC50): 26.3 µM
replication of PET cells ([4]; highly resistant to chemotherapy): profoundly suppressed
IC50 ([5]; PC-3, prostate cancer (Table 2), read-out: IC50 in suppressing proliferation): 21 µM
IC50 ([5]; PC-3, prostate cancer, 72 h, SRB assay (Table 1), read-out: IC50): 21.6 µM
effect on PC-3 cells ([5]; chemo-resistant, androgen insensitive PC-3): very effective
IC50 ([6]; HUVEC = human umbilical vein endothelial cells (Table 3), read-out: IC50 μM HUVEC): 65 µM
IC50 ([6]; Homo sapiens, HUVEC (Table 2), read-out: IC50 in suppressing proliferation): 87 µM
IC50 ([6]; Homo sapiens, HUVEC, 72 h, SRB assay (Table 1), read-out: IC50): 87.8 µM
percentage of cells in the G2-M phase, vehicle treated group versus treated group ([7]; 25 μM MPL): more than three times higher
cell cycle progression ([7]; concentration and time-dependent): arrested in the G1 phase
expression of cell cycle regulatory proteins cdk2, cdk4, cyclins A and E [8]: lower levels of cdk2, cdk4, cyclins A, and E
expression of LC3-II (autophagy) [9]: increased expression of LC3-II
tumor growth, initial trial ([10]; 25 mg/kg i.p., three times weekly (trial with 2.5 or 25 mg/kg)): particularly effective
tumor growth ([10]; 50 mg/kg dose (both i.p. and oral), three times weekly): profoundly retarding tumor growth
tumor growth, second trial ([10]; 50 mg/kg i.p. (trial with 25 and 50 mg/kg)): more effective in retarding tumor growth
doses at which anticancer effects are observed in animal models ([10]; animal models): 5 to 50 mg/kg
tumor histology ([10]; tumor tissue from the in vivo trials): massive areas of tumor cell death; also recorded: extensive necrosis
clinical tolerance ([11]; 1000 mg of MPL per kg of body weight per 24 hours, mammals): well tolerated
dose tolerated by animals when used as an anthelmintic ([11]; animals): up to 2000 mg/kg
single-dose toxicity ([11]; single dose): > 2000 mg per kg of body weight
